According to patent US20130225483A1, “New Treatments of Hepatitis C Virus Infection” (priority 2010, published 2013):

Tested on: HCV genotype 2 (GT2) and genotype 3 (GT3)
Assay: Phase II clinical study: proportion of patients HCV RNA negative by LOQ
Type: in vivo
Details: monotherapy arm (600 mg BID 1 week, then 1000 mg QD), 25 IU/mL
Protocol: The efficacy of the therapy regimen may be monitored using standard protocols. Treatment may be followed by determinations of HCV in serum and measurement of serum ALT levels. For example, the patients may be assessed for the presence of HCV RNA in their plasma. HCV RNA (IU/mL) can be measured at regular intervals during the treatment, e.g., at Day 1 (pre-dose and 4, 8, and 12 hours post-dose) and pre-dose at Day 2, Day 3, Day 8, Day 15, Day 29, and at Week 12, Week 24, Week 36, Week 48, Week 72 (when applicable), and at follow up. In addition, the HCV strains in the patient can be sequenced and assessed for identification of mutations selecting for resistance.
As used herein, LOD means limit of detection (serum HCV RNA is less than 10 IU/mL) and LOQ means limit of quantification (serum HCV RNA is less than 25 IU/mL). HCV RNA levels can be measured using commercially available methods. […]

In the case of `C/C=C/C[C@@H](C)[C@@H](O)[C@H]1C(=O)N[C@@H](CC)C(=O)N(C)[C@H](C)C(=O)N(CC)[C@@H](C(C)C)C(=O)N[C@@H](C(C)C)C(=O)N(C)[C@@H](CC(C)C)C(=O)N[C@@H](C)C(=O)N[C@H](C)C(=O)N(C)[C@@H](CC(C)C)C(=O)N(C)[C@@H](CC(C)C)C(=O)N(C)[C@@H](C(C)C)C(=O)N1C` [alisporivir, Alisporivir], the “patients achieved HCV RNA negative results (fraction in words)” value is reported as “one third”.
